# Data published in patent publication US20020111274A1, “1-alkyl-3-[1-(substituted phenyl) benzotriazol-6-yl] uracils” (BASF Aktiengesellschaft, priority 2000, published 2002).
# How the values were obtained:
# Set-up in all cases: scale not given here
# [1] = system: CHEAL Lambsquarters, Common; assay: Postemergence herbicidal evaluation, CHEAL; format: in vivo, Chenopodium album, L.; details: postemergence spray, rated about two-three weeks after treatment
# In short: (§1)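 Visual injury rating ~2–3 wk post-spray; replicate tests averaged. Two-week-old seedlings; foliar spray at 40 psi; 0.006–0.400 kg ai/ha in 80/20 acetone/water + 1.0% methylated seed oil.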
# [2] = system: CASOB Sicklepod; assay: Postemergence herbicidal evaluation, CASOB; format: in vivo, Cassia obtusifolia, L.; details: postemergence spray, rated about two-three weeks after treatment
# In short: as §1
# [3] = system: TRZAWR Wheat, Winter, cv Riband; assay: Postemergence herbicidal evaluation, TRZAWR; format: in vivo, Triticum aestivum; details: postemergence spray, rated about two-three weeks after treatment
# In short: as §1
# [4] = system: SETVI Foxtail, Green; assay: Postemergence herbicidal evaluation, SETVI; format: in vivo, Setaria viridis, (L.) Beau; details: postemergence spray, rated about two-three weeks after treatment
# In short: as §1
# [5] = system: AMBEL Ragweed, Common; assay: Preemergence herbicidal evaluation, AMBEL; format: in vivo, Ambrosia artemisifolia, L.; details: preemergence
# In short: (§2)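 Compound applied preemergence as an aqueous acetone spray onto freshly planted cups, dose equivalent approx. 0.013 to 0.800 kg/ha. Evaluation by rating at weeks 4–5.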
# [6] = system: AMBEL Ragweed, Common; assay: Postemergence herbicidal evaluation, AMBEL; format: in vivo, Ambrosia artemisifolia, L.; details: postemergence spray, rated about two-three weeks after treatment
# In short: as §1
# [7] = system: CHEAL Lambsquarters, Common; assay: Preemergence herbicidal evaluation, CHEAL; format: in vivo, Chenopodium album, L.; details: preemergence
# In short: as §2
# [8] = system: IPOHE Morningglory, Ivyleaf; assay: Postemergence herbicidal evaluation, IPOHE; format: in vivo, Ipomoea hederacea, (L.) Jacq.; details: postemergence spray, rated about two-three weeks after treatment
# In short: as §1
# [9] = system: CASOB Sicklepod; assay: Preemergence herbicidal evaluation, CASOB; format: in vivo, Cassia obtusifolia, L.; details: preemergence
# In short: as §2
# [10] = system: ZEAMX Corn, Field; assay: Postemergence herbicidal evaluation, ZEAMX; format: in vivo, Zea mays, L. (Sammel-Bezeichnung); details: postemergence spray, rated about two-three weeks after treatment
# In short: as §1
# [11] = system: ECHOG Barnyardgrass; assay: Preemergence herbicidal evaluation, ECHOG; format: in vivo, Echinochloa crus-galli, (L.) Beau; details: preemergence
# In short: as §2
# [12] = system: GLXMAW Soybean, Williams; assay: Preemergence herbicidal evaluation, GLXMAW; format: in vivo, Glycine max, (L.) Merr. cv Williams; details: preemergence
# In short: as §2
# [13] = system: GALAP Galium; assay: Preemergence herbicidal evaluation, GALAP; format: in vivo, Galium aparine; details: preemergence
# In short: as §2
# [14] = system: ORYSAT Rice, Tebonnet; assay: Postemergence herbicidal evaluation, ORYSAT; format: in vivo, Oryza sativa, (L.); details: postemergence spray, rated about two-three weeks after treatment
# In short: as §1
# [15] = system: GALAP Galium; assay: Postemergence herbicidal evaluation, GALAP; format: in vivo, Galium aparine; details: postemergence spray, rated about two-three weeks after treatment
# In short: as §1
# [16] = system: ZEAMX Corn, Field; assay: Preemergence herbicidal evaluation, ZEAMX; format: in vivo, Zea mays, L. (Sammel-Bezeichnung); details: preemergence
# In short: as §2
# [17] = system: TRZAWR Wheat, Winter, cv Riband; assay: Preemergence herbicidal evaluation, TRZAWR; format: in vivo, Triticum aestivum; details: preemergence
# In short: as §2
# [18] = system: ECHOG Barnyardgrass; assay: Postemergence herbicidal evaluation, ECHOG; format: in vivo, Echinochloa crus-galli, (L.) Beau; details: postemergence spray, rated about two-three weeks after treatment
# In short: as §1
# [19] = system: ABUTH Velvetleaf; assay: Postemergence herbicidal evaluation, ABUTH; format: in vivo, Abutilon theophrasti, Medic.; details: postemergence spray, rated about two-three weeks after treatment
# In short: as §1
# [20] = system: ABUTH Velvetleaf; assay: Preemergence herbicidal evaluation, ABUTH; format: in vivo, Abutilon theophrasti, Medic.; details: preemergence
# In short: as §2
# [21] = system: IPOHE Morningglory, Ivyleaf; assay: Preemergence herbicidal evaluation, IPOHE; format: in vivo, Ipomoea hederacea, (L.) Jacq.; details: preemergence
# In short: as §2
# [22] = system: ORYSAT Rice, Tebonnet; assay: Preemergence herbicidal evaluation, ORYSAT; format: in vivo, Oryza sativa, (L.); details: preemergence
# In short: as §2
# [23] = system: GLXMAW Soybean, Williams; assay: Postemergence herbicidal evaluation, GLXMAW; format: in vivo, Glycine max, (L.) Merr. cv Williams; details: postemergence spray, rated about two-three weeks after treatment
# In short: as §1
# [24] = system: SETVI Foxtail, Green; assay: Preemergence herbicidal evaluation, SETVI; format: in vivo, Setaria viridis, (L.) Beau; details: preemergence
# In short: as §2
compound,measurement,setting,value
Cc1ccccc1-n1nnc2cc(F)c(-n3c(=O)cc(C(F)(F)F)n(C)c3=O)cc21 [Example 20],Postemergence herbicidal rating CHEAL,[1]; 0.008 kg/ha,0.0
same,Postemergence herbicidal rating CHEAL,[1]; 0.016 kg/ha,0.0
same,Postemergence herbicidal rating CHEAL,[1]; 0.032 kg/ha,3.0
same,Postemergence herbicidal rating CHEAL,[1]; 0.062 kg/ha,5.0
same,Postemergence herbicidal rating CASOB,[2]; 0.008 kg/ha,0.0
same,Postemergence herbicidal rating CASOB,[2]; 0.016 kg/ha,0.0
same,Postemergence herbicidal rating CASOB,[2]; 0.032 kg/ha,0.0
same,Postemergence herbicidal rating CASOB,[2]; 0.062 kg/ha,1.0
same,Postemergence herbicidal rating TRZAWR,[3]; 0.008 kg/ha,1.5
same,Postemergence herbicidal rating TRZAWR,[3]; 0.016 kg/ha,1.5
same,Postemergence herbicidal rating TRZAWR,[3]; 0.032 kg/ha,1.5
same,Postemergence herbicidal rating TRZAWR,[3]; 0.062 kg/ha,2.5
same,Postemergence herbicidal rating SETVI,[4]; 0.008 kg/ha,0.0
same,Postemergence herbicidal rating SETVI,[4]; 0.016 kg/ha,0.0
same,Postemergence herbicidal rating SETVI,[4]; 0.032 kg/ha,0.0
same,Postemergence herbicidal rating SETVI,[4]; 0.062 kg/ha,0.0
same,AMBEL herbicidal rating,[5]; rate 0.016 kg/ha,0.0
same,AMBEL herbicidal rating,[5]; rate 0.032 kg/ha,1.5
same,AMBEL herbicidal rating,[5]; rate 0.062 kg/ha,2.5
same,AMBEL herbicidal rating,[5]; rate 0.125 kg/ha,5.5
same,Postemergence herbicidal rating AMBEL,[6]; 0.008 kg/ha,0.0
same,Postemergence herbicidal rating AMBEL,[6]; 0.016 kg/ha,1.0
same,Postemergence herbicidal rating AMBEL,[6]; 0.032 kg/ha,1.0
same,Postemergence herbicidal rating AMBEL,[6]; 0.062 kg/ha,3.0
same,CHEAL herbicidal rating,[7]; rate 0.016 kg/ha,9.0
same,CHEAL herbicidal rating,[7]; rate 0.032 kg/ha,9.0
same,CHEAL herbicidal rating,[7]; rate 0.062 kg/ha,9.0
same,CHEAL herbicidal rating,[7]; rate 0.125 kg/ha,9.0
same,Postemergence herbicidal rating IPOHE,[8]; 0.008 kg/ha,1.0
same,Postemergence herbicidal rating IPOHE,[8]; 0.016 kg/ha,4.0
same,Postemergence herbicidal rating IPOHE,[8]; 0.032 kg/ha,4.0
same,Postemergence herbicidal rating IPOHE,[8]; 0.062 kg/ha,9.0
same,CASOB herbicidal rating,[9]; rate 0.016 kg/ha,0.0
same,CASOB herbicidal rating,[9]; rate 0.032 kg/ha,0.0
same,CASOB herbicidal rating,[9]; rate 0.062 kg/ha,0.0
same,CASOB herbicidal rating,[9]; rate 0.125 kg/ha,2.0
same,Postemergence herbicidal rating ZEAMX,[10]; 0.008 kg/ha,3.0
same,Postemergence herbicidal rating ZEAMX,[10]; 0.016 kg/ha,3.5
same,Postemergence herbicidal rating ZEAMX,[10]; 0.032 kg/ha,3.5
same,Postemergence herbicidal rating ZEAMX,[10]; 0.062 kg/ha,5.0
same,ECHCG herbicidal rating,[11]; rate 0.016 kg/ha,0.0
same,ECHCG herbicidal rating,[11]; rate 0.032 kg/ha,0.0
same,ECHCG herbicidal rating,[11]; rate 0.062 kg/ha,3.5
same,ECHCG herbicidal rating,[11]; rate 0.125 kg/ha,8.0
same,GLXMAW herbicidal rating,[12]; rate 0.016 kg/ha,0.0
same,GLXMAW herbicidal rating,[12]; rate 0.032 kg/ha,0.5
same,GLXMAW herbicidal rating,[12]; rate 0.062 kg/ha,1.5
same,GLXMAW herbicidal rating,[12]; rate 0.125 kg/ha,3.0
same,GALAP herbicidal rating,[13]; rate 0.016 kg/ha,0.0
same,GALAP herbicidal rating,[13]; rate 0.032 kg/ha,0.0
same,GALAP herbicidal rating,[13]; rate 0.062 kg/ha,0.0
same,GALAP herbicidal rating,[13]; rate 0.125 kg/ha,0.0
same,Postemergence herbicidal rating ORYSAT,[14]; 0.008 kg/ha,0.0
same,Postemergence herbicidal rating ORYSAT,[14]; 0.016 kg/ha,0.5
same,Postemergence herbicidal rating ORYSAT,[14]; 0.032 kg/ha,0.5
same,Postemergence herbicidal rating ORYSAT,[14]; 0.062 kg/ha,1.0
same,Postemergence herbicidal rating GALAP,[15]; 0.008 kg/ha,0.0
same,Postemergence herbicidal rating GALAP,[15]; 0.016 kg/ha,0.0
same,Postemergence herbicidal rating GALAP,[15]; 0.032 kg/ha,2.0
same,Postemergence herbicidal rating GALAP,[15]; 0.062 kg/ha,9.0
same,ZEAMX herbicidal rating,[16]; rate 0.016 kg/ha,0.0
same,ZEAMX herbicidal rating,[16]; rate 0.032 kg/ha,1.0
same,ZEAMX herbicidal rating,[16]; rate 0.062 kg/ha,4.5
same,ZEAMX herbicidal rating,[16]; rate 0.125 kg/ha,6.0
same,TRZAWR herbicidal rating,[17]; rate 0.016 kg/ha,0.0
same,TRZAWR herbicidal rating,[17]; rate 0.032 kg/ha,0.0
same,TRZAWR herbicidal rating,[17]; rate 0.062 kg/ha,4.0
same,TRZAWR herbicidal rating,[17]; rate 0.125 kg/ha,6.0
same,Postemergence herbicidal rating ECHCG,[18]; 0.008 kg/ha,0.0
same,Postemergence herbicidal rating ECHCG,[18]; 0.016 kg/ha,0.0
same,Postemergence herbicidal rating ECHCG,[18]; 0.032 kg/ha,0.0
same,Postemergence herbicidal rating ECHCG,[18]; 0.062 kg/ha,0.0
same,Postemergence herbicidal rating ABUTH,[19]; 0.008 kg/ha,9.0
same,Postemergence herbicidal rating ABUTH,[19]; 0.016 kg/ha,9.0
same,Postemergence herbicidal rating ABUTH,[19]; 0.032 kg/ha,9.0
same,Postemergence herbicidal rating ABUTH,[19]; 0.062 kg/ha,9.0
same,ABUTH herbicidal rating,[20]; rate 0.016 kg/ha,0.0
same,ABUTH herbicidal rating,[20]; rate 0.032 kg/ha,6.5
same,ABUTH herbicidal rating,[20]; rate 0.062 kg/ha,9.0
same,ABUTH herbicidal rating,[20]; rate 0.125 kg/ha,9.0
same,IPOHE herbicidal rating,[21]; rate 0.016 kg/ha,0.0
same,IPOHE herbicidal rating,[21]; rate 0.032 kg/ha,3.0
same,IPOHE herbicidal rating,[21]; rate 0.062 kg/ha,4.5
same,IPOHE herbicidal rating,[21]; rate 0.125 kg/ha,4.5
same,ORYSAT herbicidal rating,[22]; rate 0.016 kg/ha,0.0
same,ORYSAT herbicidal rating,[22]; rate 0.032 kg/ha,0.0
same,ORYSAT herbicidal rating,[22]; rate 0.062 kg/ha,1.0
same,ORYSAT herbicidal rating,[22]; rate 0.125 kg/ha,3.0
same,Postemergence herbicidal rating GLXMAW,[23]; 0.008 kg/ha,3.0
same,Postemergence herbicidal rating GLXMAW,[23]; 0.016 kg/ha,5.5
same,Postemergence herbicidal rating GLXMAW,[23]; 0.032 kg/ha,5.5
same,Postemergence herbicidal rating GLXMAW,[23]; 0.062 kg/ha,5.5
same,SETVI herbicidal rating,[24]; rate 0.016 kg/ha,0.0
same,SETVI herbicidal rating,[24]; rate 0.032 kg/ha,8.0
same,SETVI herbicidal rating,[24]; rate 0.062 kg/ha,9.0
same,SETVI herbicidal rating,[24]; rate 0.125 kg/ha,9.0
